For this experiment, the system named is L1210 leukemia ip in BDF1 mice, survival T/C. Briefly: NCI In Vivo Anticancer Drug Screen. Data for tumor model L1210 Leukemia (intraperitoneal) in B6D2F1 (BDF1) mice. To be noted: endpoint: mean survival time, higher = longer survival. An outline of the steps:
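Transplanted-tumor mice were given test agent; controls received vehicle only. Survival readings from the two groups were divided (treated over control).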

Setting [1] is: dose: 100.0 mg/kg/injection, schedule: Q01DX009 (ip), vehicle: Klucel (hydroxypropylcellulose) (HPC).
[2] abbreviates: dose: 200.0 mg/kg/injection, schedule: Q01DX009 (ip), vehicle: Klucel (hydroxypropylcellulose) (HPC).
Where [3] appears, read: dose: 400.0 mg/kg/injection, schedule: Q01DX009 (ip), vehicle: Klucel (hydroxypropylcellulose) (HPC).
The mark [4] stands for this setting: dose: 100.0 mg/kg/injection, schedule: Q04DX002 (ip), vehicle: saline.
[5] abbreviates: dose: 200.0 mg/kg/injection, schedule: Q04DX002 (ip), vehicle: saline.
Where [6] appears, read: dose: 400.0 mg/kg/injection, schedule: Q04DX002 (ip), vehicle: saline.
[7] abbreviates: dose: 100.0 mg/kg/injection, schedule: Q01DX001 (ip), vehicle: Klucel (hydroxypropylcellulose) (HPC).
The mark [8] stands for this setting: dose: 200.0 mg/kg/injection, schedule: Q01DX001 (ip), vehicle: Klucel (hydroxypropylcellulose) (HPC).
Where [9] appears, read: dose: 400.0 mg/kg/injection, schedule: Q01DX001 (ip), vehicle: Klucel (hydroxypropylcellulose) (HPC).
[10] abbreviates: dose: 100.0 mg/kg/injection, schedule: Q01DX001 (ip), vehicle: saline.
Where [11] appears, read: dose: 200.0 mg/kg/injection, schedule: Q01DX001 (ip), vehicle: saline.
Setting [12] is: dose: 400.0 mg/kg/injection, schedule: Q01DX001 (ip), vehicle: saline.

Each structure is given as a SMILES string. Several values for one entry are separate records, joined by “and”; a condition that tells them apart may be missing. Identical values can stand only once. Toxic doses and inconclusive results are not listed.

Regarding `CC(=O)N1CCn2nccc21`, the T/C was 103 % of control (dose: 100.0 mg/kg/injection, schedule: Q01DX009 (ip), vehicle: water); 97 % of control (dose: 100.0 mg/kg/injection, schedule: Q04DX003 (ip), vehicle: water); 112 % of control (dose: 200.0 mg/kg/injection, schedule: Q01DX009 (ip), vehicle: water); 106 % of control (dose: 200.0 mg/kg/injection, schedule: Q04DX003 (ip), vehicle: water); 109 % of control (dose: 240.0 mg/kg/injection, schedule: Q01DX009 (ip), vehicle: saline); 110 % of control (dose: 240.0 mg/kg/injection, schedule: Q01DX009 (ip), vehicle: water). In addition, the T/C runs as follows: (dose: 400.0 mg/kg/injection, schedule: Q01DX009 (ip), vehicle: saline) 122 % of control; (dose: 400.0 mg/kg/injection, schedule: Q04DX003 (ip), vehicle: water) 106 % of control; (dose: 666.0 mg/kg/injection, schedule: Q01DX009 (ip), vehicle: saline) 122 % of control; (dose: 666.0 mg/kg/injection, schedule: Q01DX009 (ip), vehicle: water) 90 % of control.

`CN(C)c1ccc(C(=O)C#N)cc1`: the T/C under setting [1] is 100 % of control, the T/C under setting [2] is 108 % of control and the T/C under setting [3] was 100 % of control.

With `O=C(O)c1cccc(Br)c1.[Ni]`, the T/C was 100 % of control (dose: 25.0 mg/kg/injection, schedule: Q04DX002 (ip), vehicle: Klucel (hydroxypropylcellulose) (HPC)) and 106 % of control (dose: 50.0 mg/kg/injection, schedule: Q04DX002 (ip), vehicle: Klucel (hydroxypropylcellulose) (HPC)).

On to `NC(=O)N1Cc2ccccc2Cc2ccccc2C1`, for which the T/C is, setting by setting: under setting [1], 101 % of control; under setting [2], 92 % of control; under setting [3], 95 % of control.

Take `c1ncc(OCCN2CC2)nc1OCCN1CC1`: the T/C is 102 % of control (dose: 0.12 mg/kg/injection, schedule: Q01DX009 (ip), vehicle: carboxymethylcellulose (CMC)); 108 % of control (dose: 0.25 mg/kg/injection, schedule: Q01DX009 (ip), vehicle: carboxymethylcellulose (CMC)); 102 % of control (dose: 0.5 mg/kg/injection, schedule: Q01DX009 (ip), vehicle: carboxymethylcellulose (CMC)); 97 % of control (dose: 0.5 mg/kg/injection, schedule: Q01DX009 (ip), vehicle: saline); 95 % of control (dose: 1.0 mg/kg/injection, schedule: Q01DX009 (ip), vehicle: carboxymethylcellulose (CMC)); 97 % of control (dose: 1.0 mg/kg/injection, schedule: Q01DX009 (ip), vehicle: saline). Besides, the T/C is, setting by setting: (dose: 3.0 mg/kg/injection, schedule: Q01DX009 (ip), vehicle: saline) 156 % of control; (dose: 11.1 mg/kg/injection, schedule: Q01DX001 (ip), vehicle: carboxymethylcellulose (CMC)) 124 % of control; (dose: 11.1 mg/kg/injection, schedule: Q01DX001 (ip), vehicle: saline) 120 % of control.

For `C=C(C)CC(O)CCCCC` (centres undefined), the T/C under setting [4] is 98 % of control, the T/C under setting [5] is 102 % of control and the T/C under setting [6] is 98 % of control.

`C=CCNC(=S)Nc1cccc(O)c1`: the T/C is 95 % of control under setting [1], 104 % of control under setting [2] and 107 % of control under setting [3].

As to `O=C1CCC(N2C(=O)C3C4CCC(O4)C3C2=O)C(=O)O1` (centres undefined), the T/C by setting is: under setting [4], 102 % of control; under setting [5], 94 % of control; under setting [6], 91 % of control.

With `COc1ccc(OC=O)cc1OC`, the T/C is 98 % of control (dose: 50.0 mg/kg/injection, schedule: Q01DX009 (ip), vehicle: saline); 102 % of control (dose: 100.0 mg/kg/injection, schedule: Q01DX009 (ip), vehicle: saline); 97 % of control (dose: 100.0 mg/kg/injection, schedule: Q04DX003 (ip), vehicle: acetone); 101 % of control (dose: 200.0 mg/kg/injection, schedule: Q01DX009 (ip), vehicle: saline); 107 % of control (dose: 200.0 mg/kg/injection, schedule: Q04DX003 (ip), vehicle: acetone).

As for `Nc1nc(SCc2ccccc2)cc(C(=O)O)n1`, the T/C runs as follows: (dose: 25.0 mg/kg/injection, schedule: Q01DX Z (ip), vehicle: methylcellulose (MC)) 92 % of control; (dose: 50.0 mg/kg/injection, schedule: Q01DX Z (ip), vehicle: methylcellulose (MC)) 101 % of control.

As to `C[N+](C)(C)Cc1ncccc1OC(=O)N(c1ccccc1)c1ccccc1`, the T/C reads like this: (dose: 25.0 mg/kg/injection, schedule: Q04DX003 (ip), vehicle: saline with Tween-80) 96 % of control; (dose: 50.0 mg/kg/injection, schedule: Q04DX003 (ip), vehicle: saline with Tween-80) 96 % of control; (dose: 100.0 mg/kg/injection, schedule: Q04DX003 (ip), vehicle: saline with Tween-80) 96 % of control and 101 % of control.

With `Cc1ccc(C(=O)C(Br)C(Br)c2ccc(C)cc2)cc1` (centres undefined), the T/C by setting is: under setting [7], 105 % of control; under setting [1], 96 % of control; under setting [8], 99 % of control; under setting [2], 91 % of control; under setting [9], 94 % of control; under setting [3], 95 % of control.

`Cc1[nH]c2ccccc2c1C(Cc1ccccc1N)c1c(C)[nH]c2ccccc12`: the T/C was 101 % of control (dose: 50.0 mg/kg/injection, schedule: Q01DX001 (ip), vehicle: saline); 104 % of control under setting [10]; 101 % of control under setting [11]; 104 % of control under setting [12].

As to `CCN(c1ccccc1)c1ccc([N+](=O)[O-])cc1[N+](=O)[O-]`, the T/C reads like this: (dose: 100.0 mg/kg/injection, schedule: Q01DX001 (ip), vehicle: carboxymethylcellulose (CMC)) 107 % of control; (dose: 200.0 mg/kg/injection, schedule: Q01DX001 (ip), vehicle: carboxymethylcellulose (CMC)) 91 % of control; (dose: 400.0 mg/kg/injection, schedule: Q01DX001 (ip), vehicle: carboxymethylcellulose (CMC)) 100 % of control.

Regarding `Cc1ccc2cc3c(cc(C)c4ccccc43)c3c2c1CC3`, the T/C by setting is: under setting [10], 102 % of control; under setting [11], 96 % of control; under setting [12], 96 % of control.

On to `COCC1OC(n2cnc3c(N(C)C)ncnc32)C(OC)C1OC` (centres undefined), for which the T/C by setting is: (dose: 50.0 mg/kg/injection, schedule: Q01DX005 (ip), vehicle: saline) 112 % of control; (dose: 100.0 mg/kg/injection, schedule: Q01DX005 (ip), vehicle: saline) 102 % of control; (dose: 200.0 mg/kg/injection, schedule: Q01DX005 (ip), vehicle: saline) 96 % of control.

As for `CN1CCC2CCCCC2C1Cc1ccc(CC2C3CCCCC3CCN2C)cc1` (centres undefined), the T/C by setting is: (dose: 2.5 mg/kg/injection, schedule: Q01DX001 (ip), vehicle: carboxymethylcellulose (CMC)) 96 % of control; (dose: 5.0 mg/kg/injection, schedule: Q01DX001 (ip), vehicle: carboxymethylcellulose (CMC)) 96 % of control.

For `c1ccc(CNCCCNCc2ccccn2)nc1`, the T/C is, setting by setting: (dose: 50.0 mg/kg/injection, schedule: Q01DX009 (ip), vehicle: saline with Tween-80) 93 % of control; (dose: 100.0 mg/kg/injection, schedule: Q01DX009 (ip), vehicle: saline with Tween-80) 98 % of control.

On to `CC(=O)/C(C1=NCCC1)=C(/C)O`, for which the T/C is, setting by setting: (dose: 100.0 mg/kg/injection, schedule: Q04DX003 (ip), vehicle: saline) 92 % of control; (dose: 200.0 mg/kg/injection, schedule: Q04DX003 (ip), vehicle: saline) 98 % of control; (dose: 400.0 mg/kg/injection, schedule: Q04DX003 (ip), vehicle: saline) 98 % of control.

For the molecule `O=C1CC(N2CCOCC2)c2ccccc21` (centres undefined), the T/C under setting [7] was 98 % of control; the T/C under setting [1] was 102 % of control; the T/C under setting [8] is 92 % of control; the T/C under setting [2] was 93 % of control; the T/C under setting [9] was 92 % of control; the T/C under setting [3] is 91 % of control.

Turning to `Cc1ccc(S(=O)(=O)/N=C(\N)CCl)cc1`, the T/C runs as follows: (dose: 12.5 mg/kg/injection, schedule: Q04DX002 (ip), vehicle: saline with Tween-80) 98 % of control; (dose: 25.0 mg/kg/injection, schedule: Q04DX002 (ip), vehicle: saline with Tween-80) 120 % of control; (dose: 50.0 mg/kg/injection, schedule: Q04DX002 (ip), vehicle: saline with Tween-80) 95 % of control.

Consider `CNC(=O)Oc1ccc(C(=O)OC)cc1`, for which the T/C runs as follows: under setting [10], 93 % of control; under setting [11], 90 % of control; under setting [12], 122 % of control.

The values are drawn from PubChem BioAssay AID248 (DTP/NCI, 2004).
